# Measured values reported in the NIST ThermoML archive (doi:10.1021/acs.jced.5b00948).
# ± gives the expanded uncertainty stated by the source.
# Key:
# [1] = mn = molality of the nth substance listed, in mol/kg; details: 298.15 K, 100 kPa, Liquid, Alternating current cell with electrodes
# [2] = wn = mass fraction of the nth substance listed; details: 298.15 K, 100 kPa, Liquid, Vibrating tube method
# [3] = refractive index (Na D-line) (dimensionless); wn = mass fraction of the nth substance listed; details: 298.15 K, 100 kPa, Liquid, Standard Abbe refractometry
# [4] = refractive index (Na D-line) (dimensionless); details: 298.15 K; 100 kPa; Liquid; Standard Abbe refractometry
compound,measurement,setting,value
CCCCn1cc[n+](C)c1.N[C@@H](CCC(=O)O)C(=O)[O-] [1-butyl-3-methylimidazolium (S)-2-amino-4-carboxybutanoate] + O,electrical conductivity,[1]; m1 = 0.061,0.277 ± 0.0052 S/m
same,electrical conductivity,[1]; m1 = 0.101,0.364 ± 0.0059 S/m
same,electrical conductivity,[1]; m1 = 0.142,0.466 ± 0.0065 S/m
same,electrical conductivity,[1]; m1 = 0.196,0.577 ± 0.0069 S/m
same,electrical conductivity,[1]; m1 = 0.253,0.676 ± 0.0076 S/m
same,electrical conductivity,[1]; m1 = 0.361,0.869 ± 0.0094 S/m
same,electrical conductivity,[1]; m1 = 0.439,1.01 ± 0.011 S/m
same,electrical conductivity,[1]; m1 = 0.541,1.13 ± 0.011 S/m
same,electrical conductivity,[1]; m1 = 0.628,1.205 ± 0.012 S/m
same,electrical conductivity,[1]; m1 = 0.715,1.27 ± 0.013 S/m
same,electrical conductivity,[1]; m1 = 0.848,1.37 ± 0.014 S/m
same,electrical conductivity,[1]; m1 = 0.963,1.431 ± 0.014 S/m
same,mass density,[2]; w1 = 0.111,1022.7 ± 1 kg/m3
same,mass density,[2]; w1 = 0.183,1038.8 ± 1 kg/m3
same,mass density,[2]; w1 = 0.273,1058.6 ± 1 kg/m3
same,mass density,[2]; w1 = 0.353,1075.4 ± 1 kg/m3
same,mass density,[2]; w1 = 0.42,1091 ± 1 kg/m3
same,mass density,[2]; w1 = 0.491,1105.2 ± 1 kg/m3
same,mass density,[2]; w1 = 0.561,1122.2 ± 1 kg/m3
same,mass density,[2]; w1 = 0.628,1136.6 ± 1 kg/m3
same,mass density,[2]; w1 = 0.717,1153.7 ± 1 kg/m3
same,mass density,[2]; w1 = 0.773,1167.1 ± 1 kg/m3
same,mass density,[2]; w1 = 0.836,1181.6 ± 1 kg/m3
same,mass density,[2]; w1 = 0.863,1185.8 ± 1 kg/m3
same,refractive index,[3]; w1 = 0.05,1.3448 ± 0.0004
same,refractive index,[3]; w1 = 0.103,1.3584 ± 0.0004
same,refractive index,[3]; w1 = 0.152,1.3724 ± 0.0004
same,refractive index,[3]; w1 = 0.2,1.3838 ± 0.0004
same,refractive index,[3]; w1 = 0.299,1.4025 ± 0.0004
same,refractive index,[3]; w1 = 0.377,1.4179 ± 0.0004
same,refractive index,[3]; w1 = 0.492,1.4473 ± 0.0004
same,refractive index,[3]; w1 = 0.576,1.4684 ± 0.0004
CCCCCCCC[n+]1ccn(C)c1.[Cl-] [1-methyl-3-octylimidazolium chloride] + O,electrical conductivity,[1]; m1 = 0.03,0.245 ± 0.012 S/m
same,electrical conductivity,[1]; m1 = 0.06,0.425 ± 0.011 S/m
same,electrical conductivity,[1]; m1 = 0.124,0.712 ± 0.011 S/m
same,electrical conductivity,[1]; m1 = 0.18,0.901 ± 0.011 S/m
same,electrical conductivity,[1]; m1 = 0.242,1.03 ± 0.011 S/m
same,electrical conductivity,[1]; m1 = 0.284,1.1 ± 0.011 S/m
same,electrical conductivity,[1]; m1 = 0.319,1.123 ± 0.011 S/m
same,electrical conductivity,[1]; m1 = 0.352,1.18 ± 0.012 S/m
same,electrical conductivity,[1]; m1 = 0.389,1.204 ± 0.012 S/m
same,electrical conductivity,[1]; m1 = 0.421,1.228 ± 0.012 S/m
same,electrical conductivity,[1]; m1 = 0.48,1.26 ± 0.013 S/m
same,electrical conductivity,[1]; m1 = 0.51,1.28 ± 0.013 S/m
same,electrical conductivity,[1]; m1 = 0.541,1.301 ± 0.013 S/m
O [water],refractive index,[4],1.3325 ± 0.0004
